Assay results reported in US20150337003A1, “ABIRATERONE AND ANALOGS THEREOF FOR THE TREATMENT OF DISEASES ASSOCIATED WITH CORTISOL OVERPRODUCTION” (CORTENDO AB (PUBL), priority 2013, published 2015).
Converted amounts (≈) assume the structure as drawn.

Tests used:
[1] = system: Cyp11; test: in vitro enzyme profile: Cyp11 inhibition; assay type: biochemical
[2] = target: T1, Cyp21 (Homo sapiens, UniProt P08686); test: in vitro enzyme profile: Cyp21 inhibition; assay type: biochemical
T1 sequence (P08686 1-495): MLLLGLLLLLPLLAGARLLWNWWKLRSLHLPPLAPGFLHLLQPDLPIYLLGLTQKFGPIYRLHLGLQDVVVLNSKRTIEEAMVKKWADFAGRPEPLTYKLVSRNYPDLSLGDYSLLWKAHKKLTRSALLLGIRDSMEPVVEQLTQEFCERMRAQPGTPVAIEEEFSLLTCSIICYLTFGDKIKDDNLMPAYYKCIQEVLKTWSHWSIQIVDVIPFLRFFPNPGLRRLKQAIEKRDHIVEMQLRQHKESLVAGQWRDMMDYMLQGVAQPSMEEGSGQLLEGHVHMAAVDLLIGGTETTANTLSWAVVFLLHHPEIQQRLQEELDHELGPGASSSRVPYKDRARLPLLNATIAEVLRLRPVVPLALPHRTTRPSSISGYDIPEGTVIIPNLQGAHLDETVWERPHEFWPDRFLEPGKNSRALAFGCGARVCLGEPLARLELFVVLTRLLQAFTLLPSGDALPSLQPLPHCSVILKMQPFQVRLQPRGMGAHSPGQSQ

[3] = target: Cyp3A4 (Homo sapiens, UniProt P08684); test: in vitro enzyme profile: Cyp3A4 inhibition; assay type: in vitro ADME
Chain of Cyp3A4 (P08684 whole entry): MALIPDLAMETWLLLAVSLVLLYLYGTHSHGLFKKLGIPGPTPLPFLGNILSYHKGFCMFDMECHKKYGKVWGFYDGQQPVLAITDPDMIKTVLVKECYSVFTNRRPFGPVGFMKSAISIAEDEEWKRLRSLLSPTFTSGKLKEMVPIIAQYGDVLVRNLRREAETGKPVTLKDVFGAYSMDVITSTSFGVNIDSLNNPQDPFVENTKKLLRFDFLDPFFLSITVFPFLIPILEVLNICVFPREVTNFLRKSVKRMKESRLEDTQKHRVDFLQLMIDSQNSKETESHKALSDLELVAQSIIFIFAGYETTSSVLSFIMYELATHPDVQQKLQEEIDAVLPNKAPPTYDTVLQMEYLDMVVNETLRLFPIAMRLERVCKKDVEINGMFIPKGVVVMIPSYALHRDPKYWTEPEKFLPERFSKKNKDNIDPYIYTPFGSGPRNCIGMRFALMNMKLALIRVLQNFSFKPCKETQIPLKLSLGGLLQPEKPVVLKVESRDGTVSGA

[4] = target: Cyp2D6 (Homo sapiens, UniProt P10635); test: in vitro enzyme profile: Cyp2D6 inhibition; assay type: in vitro ADME
Chain of Cyp2D6 (P10635 whole entry): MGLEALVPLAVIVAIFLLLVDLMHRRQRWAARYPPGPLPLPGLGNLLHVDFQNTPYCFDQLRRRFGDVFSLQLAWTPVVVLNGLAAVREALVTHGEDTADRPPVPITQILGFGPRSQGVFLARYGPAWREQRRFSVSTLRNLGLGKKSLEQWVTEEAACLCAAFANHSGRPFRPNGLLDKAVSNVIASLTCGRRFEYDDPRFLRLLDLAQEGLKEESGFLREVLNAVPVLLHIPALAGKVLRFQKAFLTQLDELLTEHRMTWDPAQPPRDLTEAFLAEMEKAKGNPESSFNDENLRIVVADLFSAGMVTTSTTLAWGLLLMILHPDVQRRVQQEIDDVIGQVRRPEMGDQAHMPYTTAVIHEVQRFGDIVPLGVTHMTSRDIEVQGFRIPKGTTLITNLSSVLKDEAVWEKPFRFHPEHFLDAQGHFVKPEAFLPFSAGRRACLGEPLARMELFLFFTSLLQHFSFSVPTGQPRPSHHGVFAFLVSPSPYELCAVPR

[5] = target: Cyp2C9 (Homo sapiens, UniProt P11712); test: in vitro enzyme profile: Cyp2C9 inhibition; assay type: in vitro ADME
Chain of Cyp2C9 (P11712 whole entry): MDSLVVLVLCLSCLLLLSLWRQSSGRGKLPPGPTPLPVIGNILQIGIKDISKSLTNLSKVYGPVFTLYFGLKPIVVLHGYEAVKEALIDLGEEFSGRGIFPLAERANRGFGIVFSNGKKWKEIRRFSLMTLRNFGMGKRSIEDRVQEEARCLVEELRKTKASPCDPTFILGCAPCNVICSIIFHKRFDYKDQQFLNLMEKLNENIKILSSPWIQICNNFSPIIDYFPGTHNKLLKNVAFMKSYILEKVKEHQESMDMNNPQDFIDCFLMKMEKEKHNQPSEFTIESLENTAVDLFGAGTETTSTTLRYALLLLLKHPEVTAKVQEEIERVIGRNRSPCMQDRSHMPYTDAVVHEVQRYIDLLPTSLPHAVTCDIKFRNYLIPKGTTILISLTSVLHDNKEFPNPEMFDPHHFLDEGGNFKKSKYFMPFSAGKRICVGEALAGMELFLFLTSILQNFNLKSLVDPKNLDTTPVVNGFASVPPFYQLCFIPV

[6] = Solubility; assay type: physicochemical
[7] = GPLM t1/2 (microsomal stability); assay type: in vitro ADME; details: guinea pig, liver microsomes
[8] = HLM t1/2 (microsomal stability); assay type: in vitro ADME; details: human, liver microsomes
[9] = system: cortisol and testosterone after ACTH stimulation; test: elevation of cortisol and testosterone after ACTH stimulation in male Guinea pigs; assay type: in vivo, Guinea pig; details: for Cortisol, plasma / testosterone, plasma / Cortisol, plasma, Mean / testosterone, plasma, Mean: 25 IU/kg ACTH + 100 mg/kg PO; for Cortisol, plasma, Mean: mean of 4 Guinea pigs
Experimental: Each animal was dosed by oral gavage according to the following table at −0.5 hr, and then dosed by intramuscular injection with ACTH 25 IU/kg at 0 hr.
Animals were sedated under general inhalant anesthesia (3% isoflurane) and blood samples were retrieved at 1, 2 and 4 hrs via saphenous vein. Blood aliquots (400 uL) were collected in tubes coated with K2-EDTA, mixed gently, then kept on ice and centrifuged at 2,000 g for 5 minutes at 4° C. within 15 minutes of collection. The plasma was then harvested and kept frozen at −80° C. until further processing.

[10] = target: T2, Cyp17 (Homo sapiens, UniProt P05093); test: biochemical; details: read-out: Cyp17 IC60 (nM)
T2 sequence (P05093 1-508): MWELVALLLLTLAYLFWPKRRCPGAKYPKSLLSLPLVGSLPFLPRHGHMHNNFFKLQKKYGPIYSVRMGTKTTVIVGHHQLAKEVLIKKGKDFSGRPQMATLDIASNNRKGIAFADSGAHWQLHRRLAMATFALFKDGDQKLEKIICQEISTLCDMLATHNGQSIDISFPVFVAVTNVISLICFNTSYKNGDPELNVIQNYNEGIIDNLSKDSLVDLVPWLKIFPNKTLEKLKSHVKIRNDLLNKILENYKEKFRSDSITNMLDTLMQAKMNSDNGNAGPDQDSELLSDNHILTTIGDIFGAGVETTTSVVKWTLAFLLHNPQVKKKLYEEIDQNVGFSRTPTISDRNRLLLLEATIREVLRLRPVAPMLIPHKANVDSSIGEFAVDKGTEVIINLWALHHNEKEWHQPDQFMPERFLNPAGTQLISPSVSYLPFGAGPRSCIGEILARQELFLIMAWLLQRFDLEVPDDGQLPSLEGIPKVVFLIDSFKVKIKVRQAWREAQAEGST

[11] = male Guinea pigs, ACTH stimulation, 100 mg/kg PO, vs vehicle

Cyp11 IC60 [1]: 430 nM | IC60 [2]: 1550 nM | Cyp3A4 IC60 [3]: 969 nM | Cyp2D6 IC60 [4]: 2000 nM | Cyp2C9 IC60 [5]: 2000 nM | solubility [6]: 1 µM (≈ 0.35 µg/mL) | half-life [7]: 7.7 min | half-life [8]: 60 min | IC60 [10]: 1.78 nM
SMILES: C[C@]12CC[C@H](O)CC1=CC[C@@H]1[C@@H]2CC[C@]2(C)C(c3cccnc3)=CC[C@@H]12 [abiraterone, (3S,8R,9S,10R,13S,14S)-10,13-dimethyl-17-(pyridin-3-yl)-2,3,4,7,8,9,10,11,12,13,14,15-dodecahydro-1H-cyclopenta[a]phenanthren-3-ol]
Cortisol, plasma ([9]; Guinea pig#19, 1 hr): 692 ng/mL | testosterone, plasma ([9]; Guinea pig#19, 1 hr): BQL | Cortisol, plasma ([9]; Guinea pig#19, 2 hr): 574 ng/mL | testosterone, plasma ([9]; Guinea pig#19, 2 hr): BQL | Cortisol, plasma ([9]; Guinea pig#19, 4 hr): 320 ng/mL | testosterone, plasma ([9]; Guinea pig#19, 4 hr): 0.328 ng/mL | Cortisol, plasma ([9]; Guinea pig#20, 1 hr): 821 ng/mL | testosterone, plasma ([9]; Guinea pig#20, 1 hr): BQL | Cortisol, plasma ([9]; Guinea pig#20, 2 hr): 720 ng/mL | testosterone, plasma ([9]; Guinea pig#20, 2 hr): 0.473 ng/mL | Cortisol, plasma ([9]; Guinea pig#20, 4 hr): 461 ng/mL | testosterone, plasma ([9]; Guinea pig#20, 4 hr): BQL | Cortisol, plasma ([9]; Guinea pig#21, 1 hr): 659 ng/mL | testosterone, plasma ([9]; Guinea pig#21, 1 hr): BQL | Cortisol, plasma ([9]; Guinea pig#21, 2 hr): 470 ng/mL | testosterone, plasma ([9]; Guinea pig#21, 2 hr): BQL | Cortisol, plasma ([9]; Guinea pig#21, 4 hr): 325 ng/mL | testosterone, plasma ([9]; Guinea pig#21, 4 hr): BQL | Cortisol, plasma ([9]; Guinea pig#22, 1 hr): 970 ng/mL | testosterone, plasma ([9]; Guinea pig#22, 1 hr): 0.501 ng/mL | Cortisol, plasma ([9]; Guinea pig#22, 2 hr): 876 ng/mL | testosterone, plasma ([9]; Guinea pig#22, 2 hr): 0.520 ng/mL | Cortisol, plasma ([9]; Guinea pig#22, 4 hr): 529 ng/mL | testosterone, plasma ([9]; Guinea pig#22, 4 hr): 0.461 ng/mL | effect on cortisol levels [9, 11]: significantly lower | effect on testosterone levels [9, 11]: significantly lower | Cortisol, plasma, Mean ([9]; 1 hr): 786 ng/mL | Cortisol, plasma, Mean ([9]; 2 hr): 660 ng/mL | Cortisol, plasma, Mean ([9]; 4 hr): 409 ng/mL | testosterone, plasma, Mean ([9]; 1 hr): 0.501 ng/mL | testosterone, plasma, Mean ([9]; 2 hr): 0.497 ng/mL | testosterone, plasma, Mean ([9]; 4 hr): 0.395 ng/mL
